Data set [1] has as its target PI3K alpha (Homo sapiens, UniProt P42336). Put plainly: Lipid kinase panel (MRC PPU). In kind it is biochemical. Set-up: % activity remaining: dose or concentration left out as unconfirmed. Here is the method: (§1) room temperature with shaking for 30 minutes. The kinase concentration in the eluates was measured by qPCR.
(§2) using ADP-GloTM assay at the MRC PPU International Centre for Kinase Profiling, University of Dundee.
(§3) Conducted by MRC PPU International Centre
(§4) Conducted by MRC PPU International Centre for […]

In data set [2] the target is PI3K gamma (Homo sapiens, UniProt P48736). Put plainly: Lipid kinase panel (MRC PPU). In kind it is biochemical. Also on record: % activity remaining: dose or concentration left out as unconfirmed. Here is the method:
as §1, §2, §3, §4

Data set [3] concerns the target T1, PIK4CB (Homo sapiens, UniProt Q9UBF8). Put plainly: Lipid kinase panel (MRC PPU). It counts as biochemical. Also on record: % activity remaining: dose or concentration left out as unconfirmed. The method, then:
as §1, §2, §3, §4

For data set [4], the target named is SPHK1 (Homo sapiens, UniProt Q9NYA1). Put plainly: Lipid kinase panel (MRC PPU). Set-up: % activity remaining: dose or concentration left out as unconfirmed. In kind it is biochemical. Here is the method: as §1, §2, §3, §4
Data set [5] concerns the target CHK alpha (Homo sapiens, UniProt P35790). Put plainly: Lipid kinase panel (MRC PPU). Set-up: % activity remaining: dose or concentration left out as unconfirmed. In kind it is biochemical. Here is the method:
as §1, §2, §3, §4

Data set [6] has as its target DGK beta (Homo sapiens, UniProt Q9Y6T7). Put plainly: Lipid kinase panel (MRC PPU). It counts as biochemical. Also on record: % activity remaining: dose or concentration left out as unconfirmed. Here is the method:
as §1, §2, §3, §4

Data set [7] has as its target DGK gamma (Homo sapiens, UniProt P49619). Put plainly: Lipid kinase panel (MRC PPU). In kind it is biochemical. Set-up: % activity remaining: dose or concentration left out as unconfirmed. Here is the method: as §1, §2, §3, §4
For data set [8], the target named is CHK beta (Homo sapiens, UniProt Q9Y259). Put plainly: Lipid kinase panel (MRC PPU). Set-up: % activity remaining: dose or concentration left out as unconfirmed. It counts as biochemical. The method, then: as §1, §2, §3, §4
Data set [9] has as its target PI4K2a (Homo sapiens, UniProt Q9BTU6). Put plainly: Lipid kinase panel (MRC PPU). In kind it is biochemical. Also on record: % activity remaining: dose or concentration left out as unconfirmed. The method, then: as §1, §2, §3, §4
Data set [10] has as its target DGK zeta (Homo sapiens, UniProt Q13574). Put plainly: Lipid kinase panel (MRC PPU). Also on record: % activity remaining: dose or concentration left out as unconfirmed. It counts as biochemical. Here is the method: as §1, §2, §3, §4
Data set [11] addresses SPHK2 (Homo sapiens, UniProt Q9NRA0). Put plainly: Lipid kinase panel (MRC PPU). In kind it is biochemical. Set-up: % activity remaining: dose or concentration left out as unconfirmed. The method, then: as §1, §2, §3, §4
Data set [12] deals with PI3K beta (Homo sapiens, UniProt P42338). Put plainly: Lipid kinase panel (MRC PPU). In kind it is biochemical. Also on record: % activity remaining: dose or concentration left out as unconfirmed. The method, then: as §1, §2, §3, §4
Data set [13] concerns the target PI3Ka E545K + p85 (Homo sapiens, UniProt P42336, E545K). Put plainly: Lipid kinase panel (MRC PPU). It counts as biochemical. Also on record: % activity remaining: dose or concentration left out as unconfirmed. The method, then:
as §1, §2, §3, §4

Data set [14] has as its target T2, PIK3CA(E545A) (Homo sapiens, UniProt P42336, E545A).
T2 construct: purchased DiscoverX (Eurofins Discovery)
Put plainly: KINOMEscan lipid kinase panel (DiscoverX). In kind it is binding. Also on record: dose or concentration left out as unconfirmed. The method, then:
(§5) generated using KINOMEscan™ technologya at DiscoverX. […]
(§6) a Data were generated at Eurofins Discovery using DiscoverX KINOMEscanTM technology. Streptavidin-coated magnetic beads were treated with biotinylated small molecule ligands for 30 minutes at room temperature to generate affinity resins for kinase assays. The liganded beads were blocked with excess biotin and washed with blocking buffer (SeaBlock (Pierce), 1% BSA, 0.05% Tween 20, 1 mM DTT) to remove unbound ligand and to reduce non-specific binding. Binding reactions were assembled by combining kinases, liganded affinity beads, and test compounds in 1x binding buffer (20% SeaBlock, 0.17x PBS, 0.05% Tween 20, 6 mM DTT). Test […]
(§7) The compounds were then diluted directly into the assays such that the final concentration of DMSO was 0.9%. All reactions performed in polypropylene 384-well plate. Each was a final volume of 0.02 ml. The assay plates were incubated at room temperature with shaking for […]
(§8) room temperature with shaking for 30 minutes. The kinase concentration in the eluates was measured by qPCR. […]

The target of data set [15] is T3, PIK3CA(C420R) (Homo sapiens, UniProt P42336, C420R).
T3 construct: purchased DiscoverX (Eurofins Discovery)
Put plainly: KINOMEscan lipid kinase panel (DiscoverX). In kind it is binding. Set-up: dose or concentration left out as unconfirmed. Here is the method:
as §5, §6, §7, §8

Data set [16] addresses T1, PIK4CB. Put plainly: KINOMEscan lipid kinase panel (DiscoverX). Also on record: dose or concentration left out as unconfirmed. In kind it is binding. Here is the method:
as §5, §6, §7, §8

Data set [17] addresses T4, PIK3CB (Homo sapiens, UniProt P42338).
T4 construct: purchased DiscoverX (Eurofins Discovery)
Put plainly: KINOMEscan lipid kinase panel (DiscoverX). It counts as binding. Also on record: dose or concentration left out as unconfirmed. Here is the method: as §5, §6, §7, §8

For data set [18], the target named is T5, VPS34 (Homo sapiens, UniProt Q8NEB9).
T5 construct: purchased Eurofins Discovery (DiscoverX KINOMEscan)
Put plainly: KINOMEscan lipid kinase panel (DiscoverX). In kind it is binding. Also on record: dose or concentration left out as unconfirmed. Here is the method:
as §5, §6, §7, §8

Data set [19] concerns the target T6, PIK3CG (Homo sapiens, UniProt P48736).
T6 construct: purchased DiscoverX (Eurofins Discovery)
Put plainly: KINOMEscan lipid kinase panel (DiscoverX). It counts as binding. Also on record: dose or concentration left out as unconfirmed. Here is the method: as §5, §6, §7, §8

Data set [20] addresses T7, PIK3CA(H1047L) (Homo sapiens, UniProt P42336, H1047L).
T7 construct: purchased DiscoverX (Eurofins Discovery)
Put plainly: KINOMEscan lipid kinase panel (DiscoverX). In kind it is binding. Also on record: dose or concentration left out as unconfirmed. Here is the method:
as §5, §6, §7, §8

The target of data set [21] is T8, PIKFYVE (Homo sapiens, UniProt Q9Y2I7).
T8 construct: purchased DiscoverX (Eurofins Discovery)
Put plainly: KINOMEscan lipid kinase panel (DiscoverX). In kind it is binding. Also on record: dose or concentration left out as unconfirmed. The method, then:
as §5, §6, §7, §8

The target of data set [22] is T9, PIP5K1C (Homo sapiens, UniProt O60331).
T9 construct: purchased Eurofins Discovery (DiscoverX KINOMEscan)
Put plainly: KINOMEscan lipid kinase panel (DiscoverX). In kind it is binding. Also on record: dose or concentration left out as unconfirmed. The method, then:
as §5, §6, §7, §8

Data set [23] deals with T10, PIK3C2G (Homo sapiens, UniProt O75747).
T10 construct: purchased DiscoverX (Eurofins Discovery)
Put plainly: KINOMEscan lipid kinase panel (DiscoverX). It counts as binding. Also on record: dose or concentration left out as unconfirmed. Here is the method: as §5, §6, §7, §8

The subject of data set [24] is MDR1 (P-gp). Put plainly: MDR1-MDCK permeability (bi-directional). Conditions: dog, MDCK-MDR1 cells. It counts as in vitro ADME. The method, then: ADMET experimental methods
MDR1-MDCK Permeability (bi-directional): was performed by Cyprotex Discovery. Briefly, compounds were administered at 10 µM (1% DMSO final) to the apical or basolateral side of a confluent monolayer of MDR1 - MDCK cells, then incubated a t 37 °C for 60 minutes before appearance on the opposite side of the monolayer was determined LC-MS/MS. The efflux ratio (ER) is calculated from the ratio of B -A to A-B permeabilities. […]

The mark [25] stands for this setting: 1 μM, read-out: residual activity (%).

T1 sequence (Q9UBF8 whole entry): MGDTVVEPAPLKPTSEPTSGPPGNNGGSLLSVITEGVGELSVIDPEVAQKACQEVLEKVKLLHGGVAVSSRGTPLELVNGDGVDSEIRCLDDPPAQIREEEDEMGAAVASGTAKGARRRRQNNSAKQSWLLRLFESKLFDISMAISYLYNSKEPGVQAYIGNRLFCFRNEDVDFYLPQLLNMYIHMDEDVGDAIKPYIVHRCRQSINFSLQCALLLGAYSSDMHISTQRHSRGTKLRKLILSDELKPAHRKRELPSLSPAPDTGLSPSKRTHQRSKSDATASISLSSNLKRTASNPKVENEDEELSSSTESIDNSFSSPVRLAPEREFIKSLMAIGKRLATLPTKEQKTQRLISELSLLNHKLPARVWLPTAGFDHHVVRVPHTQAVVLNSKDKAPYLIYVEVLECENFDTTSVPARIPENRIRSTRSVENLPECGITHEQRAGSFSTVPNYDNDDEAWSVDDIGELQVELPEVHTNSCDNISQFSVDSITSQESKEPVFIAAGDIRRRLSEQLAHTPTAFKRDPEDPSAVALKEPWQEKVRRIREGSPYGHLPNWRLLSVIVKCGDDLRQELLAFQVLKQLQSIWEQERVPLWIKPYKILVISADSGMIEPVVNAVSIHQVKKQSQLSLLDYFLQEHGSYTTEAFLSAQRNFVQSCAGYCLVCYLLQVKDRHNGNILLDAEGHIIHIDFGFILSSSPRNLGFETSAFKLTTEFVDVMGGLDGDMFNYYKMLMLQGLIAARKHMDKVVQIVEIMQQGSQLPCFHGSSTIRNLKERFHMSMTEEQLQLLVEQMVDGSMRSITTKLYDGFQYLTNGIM
SPHK1, sequence (Q9NYA1 whole entry, species assumed): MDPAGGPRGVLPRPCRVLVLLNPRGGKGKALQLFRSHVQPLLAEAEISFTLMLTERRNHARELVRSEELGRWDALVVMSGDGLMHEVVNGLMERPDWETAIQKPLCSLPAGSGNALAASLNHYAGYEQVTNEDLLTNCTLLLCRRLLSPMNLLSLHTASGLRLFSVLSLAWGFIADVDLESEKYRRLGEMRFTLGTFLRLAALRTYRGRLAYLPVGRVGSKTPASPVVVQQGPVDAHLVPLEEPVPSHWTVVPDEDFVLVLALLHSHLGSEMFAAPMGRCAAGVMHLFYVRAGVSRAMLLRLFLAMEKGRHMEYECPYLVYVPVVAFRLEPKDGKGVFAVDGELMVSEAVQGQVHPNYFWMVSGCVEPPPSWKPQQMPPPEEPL
PI3K beta, sequence (P42338 whole entry, species assumed): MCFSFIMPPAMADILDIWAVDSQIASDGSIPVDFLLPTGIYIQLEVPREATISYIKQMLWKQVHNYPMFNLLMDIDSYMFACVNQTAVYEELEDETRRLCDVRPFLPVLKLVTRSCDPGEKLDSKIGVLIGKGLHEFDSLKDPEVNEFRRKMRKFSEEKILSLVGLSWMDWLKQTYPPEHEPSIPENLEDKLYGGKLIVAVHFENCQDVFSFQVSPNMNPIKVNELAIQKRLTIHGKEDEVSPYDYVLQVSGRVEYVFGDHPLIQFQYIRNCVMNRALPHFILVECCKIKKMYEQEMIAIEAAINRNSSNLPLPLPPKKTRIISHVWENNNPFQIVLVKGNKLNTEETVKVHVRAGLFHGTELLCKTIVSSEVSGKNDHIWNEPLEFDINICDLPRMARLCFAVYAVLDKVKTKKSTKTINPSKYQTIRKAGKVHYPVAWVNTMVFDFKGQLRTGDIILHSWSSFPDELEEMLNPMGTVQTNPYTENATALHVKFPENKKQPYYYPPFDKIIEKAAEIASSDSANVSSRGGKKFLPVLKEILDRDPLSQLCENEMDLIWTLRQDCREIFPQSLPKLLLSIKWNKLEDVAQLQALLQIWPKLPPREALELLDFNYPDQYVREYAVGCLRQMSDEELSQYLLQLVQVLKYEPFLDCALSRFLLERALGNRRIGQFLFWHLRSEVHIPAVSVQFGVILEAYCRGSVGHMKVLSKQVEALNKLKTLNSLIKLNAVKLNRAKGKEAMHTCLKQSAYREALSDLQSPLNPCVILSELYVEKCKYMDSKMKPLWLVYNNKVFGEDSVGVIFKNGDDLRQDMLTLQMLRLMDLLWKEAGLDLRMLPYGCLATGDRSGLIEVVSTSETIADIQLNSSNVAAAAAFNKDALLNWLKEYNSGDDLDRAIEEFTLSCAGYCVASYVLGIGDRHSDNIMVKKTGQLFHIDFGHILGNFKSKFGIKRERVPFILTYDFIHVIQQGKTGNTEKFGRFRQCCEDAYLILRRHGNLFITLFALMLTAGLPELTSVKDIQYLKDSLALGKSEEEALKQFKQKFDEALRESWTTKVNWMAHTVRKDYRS
PI3K beta, sequence (P27986 whole entry partner, species assumed): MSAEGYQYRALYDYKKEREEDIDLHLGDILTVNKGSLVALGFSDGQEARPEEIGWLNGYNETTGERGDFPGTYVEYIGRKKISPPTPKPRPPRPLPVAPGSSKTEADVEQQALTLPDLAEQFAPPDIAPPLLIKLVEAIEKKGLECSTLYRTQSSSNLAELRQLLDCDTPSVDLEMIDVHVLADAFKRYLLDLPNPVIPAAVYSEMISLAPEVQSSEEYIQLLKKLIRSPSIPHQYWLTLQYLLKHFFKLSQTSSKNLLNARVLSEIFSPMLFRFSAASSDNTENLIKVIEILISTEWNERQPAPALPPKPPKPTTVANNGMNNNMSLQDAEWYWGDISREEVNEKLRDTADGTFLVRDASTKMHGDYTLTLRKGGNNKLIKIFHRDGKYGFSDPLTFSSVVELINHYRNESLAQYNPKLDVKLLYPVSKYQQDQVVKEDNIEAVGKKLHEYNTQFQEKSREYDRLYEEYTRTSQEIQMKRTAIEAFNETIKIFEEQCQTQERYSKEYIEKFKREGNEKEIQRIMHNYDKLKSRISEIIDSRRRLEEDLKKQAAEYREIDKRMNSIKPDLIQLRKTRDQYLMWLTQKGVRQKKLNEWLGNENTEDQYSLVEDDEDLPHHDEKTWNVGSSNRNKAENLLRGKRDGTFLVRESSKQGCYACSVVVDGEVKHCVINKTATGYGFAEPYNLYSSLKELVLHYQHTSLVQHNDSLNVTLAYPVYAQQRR
SPHK2, sequence (Q9NRA0 whole entry, species assumed): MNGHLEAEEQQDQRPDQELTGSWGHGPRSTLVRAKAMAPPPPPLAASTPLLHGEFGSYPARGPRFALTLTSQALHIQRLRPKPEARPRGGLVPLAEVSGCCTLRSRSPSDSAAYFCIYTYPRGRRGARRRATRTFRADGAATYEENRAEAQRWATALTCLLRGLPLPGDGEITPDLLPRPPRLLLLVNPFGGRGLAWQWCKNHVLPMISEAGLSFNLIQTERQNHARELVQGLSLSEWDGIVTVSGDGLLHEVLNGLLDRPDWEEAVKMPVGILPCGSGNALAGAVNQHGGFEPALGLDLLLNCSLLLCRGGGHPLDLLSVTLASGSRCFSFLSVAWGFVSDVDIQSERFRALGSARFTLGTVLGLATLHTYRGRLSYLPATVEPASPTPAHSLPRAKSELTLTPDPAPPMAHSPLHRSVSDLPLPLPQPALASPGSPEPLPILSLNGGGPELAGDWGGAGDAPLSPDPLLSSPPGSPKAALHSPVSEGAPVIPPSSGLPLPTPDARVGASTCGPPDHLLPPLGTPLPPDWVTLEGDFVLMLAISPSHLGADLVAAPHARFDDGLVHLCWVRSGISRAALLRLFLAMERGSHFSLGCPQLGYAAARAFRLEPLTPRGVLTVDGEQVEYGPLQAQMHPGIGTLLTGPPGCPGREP
PI4K2a, sequence (Q9BTU6 whole entry, species assumed): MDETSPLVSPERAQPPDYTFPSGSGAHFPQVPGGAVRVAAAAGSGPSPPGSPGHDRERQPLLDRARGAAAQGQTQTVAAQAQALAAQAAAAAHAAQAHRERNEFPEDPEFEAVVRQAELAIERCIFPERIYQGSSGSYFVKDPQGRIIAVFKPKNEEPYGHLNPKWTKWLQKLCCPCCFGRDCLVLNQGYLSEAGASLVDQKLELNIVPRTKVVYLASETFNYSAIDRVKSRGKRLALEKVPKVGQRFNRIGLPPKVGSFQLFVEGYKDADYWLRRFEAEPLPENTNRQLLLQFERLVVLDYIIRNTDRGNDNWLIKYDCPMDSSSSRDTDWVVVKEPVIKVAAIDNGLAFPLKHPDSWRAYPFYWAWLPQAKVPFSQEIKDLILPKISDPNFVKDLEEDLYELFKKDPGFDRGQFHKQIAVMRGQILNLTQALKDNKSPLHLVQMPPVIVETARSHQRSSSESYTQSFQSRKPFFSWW
DGK gamma, sequence (P49619 whole entry, species assumed): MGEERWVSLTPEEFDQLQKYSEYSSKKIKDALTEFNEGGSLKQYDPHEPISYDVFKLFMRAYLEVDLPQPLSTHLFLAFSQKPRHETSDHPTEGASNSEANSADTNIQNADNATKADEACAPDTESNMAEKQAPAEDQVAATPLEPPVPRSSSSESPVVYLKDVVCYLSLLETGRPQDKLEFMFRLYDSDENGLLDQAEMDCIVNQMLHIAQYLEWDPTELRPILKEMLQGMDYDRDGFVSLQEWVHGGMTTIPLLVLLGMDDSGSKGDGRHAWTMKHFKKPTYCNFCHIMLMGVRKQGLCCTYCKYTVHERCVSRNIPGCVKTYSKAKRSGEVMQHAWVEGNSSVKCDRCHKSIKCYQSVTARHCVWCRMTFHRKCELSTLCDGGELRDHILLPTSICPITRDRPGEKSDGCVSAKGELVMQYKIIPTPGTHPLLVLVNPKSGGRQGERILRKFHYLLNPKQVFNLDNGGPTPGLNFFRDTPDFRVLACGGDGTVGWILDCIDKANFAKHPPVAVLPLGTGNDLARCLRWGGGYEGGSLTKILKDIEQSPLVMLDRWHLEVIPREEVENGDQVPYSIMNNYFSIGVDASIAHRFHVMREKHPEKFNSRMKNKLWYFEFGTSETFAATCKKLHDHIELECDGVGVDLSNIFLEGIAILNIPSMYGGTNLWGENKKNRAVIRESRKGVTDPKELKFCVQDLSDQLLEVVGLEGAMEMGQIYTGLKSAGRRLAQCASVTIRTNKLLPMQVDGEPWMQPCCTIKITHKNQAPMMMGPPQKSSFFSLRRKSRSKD
T4 sequence (P42338 whole entry): as the sequence (P42338 whole entry, species assumed) above

For `CC1(C)CN(c2ncc(C(=O)Nc3cccc(C(F)(F)F)c3)c(N)n2)C(=O)N1` [compound 7, Imanixil], the “% activity remaining” value in data set [1] (PI3K a, ADP-Glo) is on record as 106%; in [2] (PI3K g, ADP-Glo), 79%; in data set [3] (PIK4CB, ADP-Glo) it was 94%; in [4] (ADP-Glo), 98%; in [5] (CHK a, ADP-Glo), 101%; in data set [6] (DGK b, ADP-Glo), 97%. The “% activity remaining” value turned out to be 100% in data set [7] (DGK g, ADP-Glo); 99% in data set [8] (CHK b, ADP-Glo); 100% in [9] (ADP-Glo); 101% in [10] (DGK z, ADP-Glo); 99% in data set [11] (ADP-Glo); 109% in [12] (PI3K b, ADP-Glo). The “% activity remaining” value in data set [13] (ADP-Glo) was 107%; in data set [14] it was 100%; in [15], 100%; in [16], 98%; in data set [17], 100%; in data set [18], 100%. Besides, the “% activity remaining” value in [19], in [20], in data set [21], in data set [22] and in data set [23] was 100% each time.
With `COc1ccc(Nc2ncnc3c2ccn3-c2ccc(C)c(C)c2)cc1Cl` [compound 36], the remaining activity at 1 µM was found to be 83.8% in data set [1] (PI3K alpha, 1 μM, read-out: residual activity (%)); 100% in [2] (read-out: residual activity (%)); 101% in data set [3] (PIK4Cb, 1 μM, read-out: residual activity (%)); 92.9% in [4] (setting [25]); 87.8% in data set [5] (CHK alpha, 1 μM, read-out: residual activity (%)); 100% in data set [6] (DGK beta, 1 μM, read-out: residual activity (%)). The remaining activity at 1 µM in data set [7] (DGK gamma, 1 μM, read-out: residual activity (%)) was 106%; in data set [8] (CHK beta, 1 μM, read-out: residual activity (%)) it was 93.4%; in [9] (setting [25]) it was 95.7%; in data set [10] (DGK zeta, 1 μM, read-out: residual activity (%)), 100%; in data set [11] (setting [25]), 81.7%; in data set [12] (PI3K beta, 1 μM, read-out: residual activity (%)), 83.1%. In [13] (setting [25]), the remaining activity at 1 µM was determined as 97.6%. In data set [24], this molecule gave a Papp A→B at 60 min, 10 µM of 0.2 ×10⁻⁶ cm/s.

The record behind these values is publication PMC10211317, “Identification of ARUK2002821 as an isoform-selective PI5P4Kα inhibitor” (RSC Medicinal Chemistry, 2023).
